Assay results: paper PMC201021 (Malaria Journal, 2003)
“Also recorded” adds a separate entry of the source.

Key:
[1] = system: haematin dimerization to β-haematin; assay: β-Haematin Inhibitory Activity; format: biochemical; details: 10 fold molar excess of drug
[2] = system: haematin dimerization to β-haematin; details: cited from earlier work

Row | SMILES | inhibition of the BHIA haematin dimerization reaction (in words) [1] | inhibition of the BHIA haematin dimerization reaction (in words) ([1]; listed as PM) | inhibition of spontaneous haematin dimerization to β-haematin in vitro [2]
1 | CC[C@H]1CN2CC[C@H]1C[C@@H]2[C@@H](O)c1ccnc2ccc(OC)cc12 [HQD, hydroquinidine] | activity; also recorded: inhibited | – | –
2 | CCN(CC)CCCC(C)Nc1ccnc2cc(Cl)ccc12 (centres unmarked) [CQ, chloroquine] | inhibited | – | –
3 | CC(CN1c2ccccc2Sc2ccccc21)N(C)C (centres unmarked) [PMZ, promethazine] | Significant inhibition was not seen | no significant interaction | –
4 | C=C[C@H]1CN2CC[C@H]1C[C@@H]2C(O)c1ccnc2ccc(OC)cc12 (some centres unmarked) [Q, 6'-methoxy cinchonan-9-ol] | activity; also recorded: inhibited | – | inhibits
5 | C=C[C@H]1C[N@@]2CC[C@H]1C[C@@H]2[C@@H](O)c1ccnc2ccccc12 [C, cinchonine] | activity; also recorded: inhibited | – | –
6 | C=C[C@H]1C[N@@]2CC[C@H]1C[C@@H]2[C@@H](O)c1ccnc2ccc(OC)cc12 [QD, quinidine] | activity; also recorded: inhibited | – | –
7 | C=C[C@H]1CN2CC[C@H]1C[C@H]2[C@H](O)c1ccnc2ccccc12 [CD, cinchonidine] | activity; also recorded: inhibited | – | –
8 | CC[C@H]1CN2CC[C@H]1C[C@H]2[C@H](O)c1ccnc2ccc(OC)cc12 [HQ, hydroquinine] | activity; also recorded: inhibited | – | –
9 | COc1ccc(CCN(C)CCCC(C#N)(c2ccc(OC)c(OC)c2)C(C)C)cc1OC (centres unmarked) [VE, Verapamil] | Significant inhibition was not seen; also recorded: no significant interaction | – | –
